Data on two substances can be found in US7264969B1, “Carrier system for specific artery wall gene delivery” (University of Utah Research Foundation, priority 2000, dated 2007).

Where no end group is shown, it is not given here.

The subject of data set [1] is bovine aorta smooth muscle cells. Nature of the data set: Transfection assay (luciferase gene expression). Format: cell-based. On the procedure:
(§1) Gene expression. (Transfection assay) Primary bovine aorta endothelial cells and smooth muscle cells were prepared, cultured, characterized, and identified as described in L. Yu et al., supra. Bovine aorta endothelial cells (5×10^5/well) and smooth muscle cells (2×10^5/well) were seeded in 24-well plates with 1 ml Dulbecco's modified Eagle medium (DMEM, Hyclone Laboratories, Logan, Utah) containing 10% fetal bovine serum (FBS, Hyclone Laboratories) and incubated for 24 hours to 70-80% confluency. The AWBP-PEG-g-PLL/pCMV-Luc complexes were freshly prepared in PBS for the transfection with fixed amount of plasmid DNA (2 μg/well) and various amounts of AWBP-PEG-g-PLL. After incubation of complexes for 30 minutes at room temperature, 100 μl of complex solution was added to the cells and then incubated for 3 hours at 37° C. in 5% CO2 atmosphere. After replacement of media, the cells were incubated for 40 hours under the same conditions. The cells were washed three times with PBS buffer and made ready for the reporter gene expression assay.
(§2) (Gene expression assay) Transgene expression was evaluated by luciferase activity of cell lysates from transfected bovine aorta endothelial cells and smooth muscle cells. Measurement of luciferase activity was performed according to the manufacturer's instruction (Luciferase Assay System, Promega, Madison, Wis.). Briefly, the transfected cells were lysed with 1× lysis buffer (1% Triton X-100), 100 mM KPO4, 2 mM dithiothreitol, 10% glycerol, and 2 mM EDTA, pH 7.8) for 15 minutes at room temperature. To measure the luciferase activity, 20 μl aliquot of cell lysate was mixed with 50 μl of luciferase assay reagent at room temperature and inserted in the luminometer. Light emission was measured in triplicate over 10 s and expressed as relative light units (RLUs). RLUs were normalized from the protein content of each sample, which was determined by BCA protein assay.

Data set [2] deals with bovine aorta endothelial cells. Nature of the data set: Transfection assay (luciferase gene expression). In kind it is cell-based. On the procedure: as §1, §2
For the next data set, the system named is DNase I. Nature of the data set: DNase protection assay. To be noted: 37° C.; charge ratio 2/1 (+/−); 10 times excess of DNase I; FIG. 3B. On the procedure: AWBP-PEG-g-PLL/pDNA complexes were prepared at the charge ratios of 2/1 (+/−) and incubated in the presence of 10 times excess of DNase I. At 0, 5, 10, 15, 20, 60, and 120 minutes after incubation, 50 μl of the sample was transferred into another tube and mixed with 100 μl of stop solution (400 mM NaCl and 100 mM EDTA) using mild agitation with a vortexer. The sample was then mixed with 12 μl of 10% (w/v) sodium dodecyl sulfate (SDS) and incubated at 65° C. overnight. DNA was extracted with the mixture of Tris-EDTA saturated phenol:chloroform:isoamyl alcohol (25:24:1, v/v). The extracted DNA was precipitated with 700 μl of absolute ethanol at 12,000 rpm for 30 minutes and washed with 70% ethanol. The DNA precipitate was air-dried and then dissolved in 10 μl TE buffer. The plasmid integrity was assessed by electrophoresis in a 1% agarose gel.

In data set [3] the test system is bovine aorta smooth muscle cells. Nature of the data set: Transfection inhibition assay with free AWBP. The settings on record: free AWBP 31.25 μM to 500 μM. Format: cell-based. On the procedure:
(§3) (Transfectioninhibition assay). Bovine aorta endothelial cells (5×10^5/well) and smooth muscle cells (2×10^5/well) were seeded in 24-well plates 1 day prior to transfection with 70 to 80% confluence. The AWBP-PEG-g-PLL/pCMV-Luc complexes were freshly prepared in PBS buffer for the transfection with a fixed amount of plasmid DNA (2 μg/well) and AWBP-PEG-g-PLL (4 μg/well). After addition of various amounts of free artery wall binding peptide (range from 31.3 μM to 1.0 mM) for 20 minutes at 4° C., 100 μl AWBP-PEG-g-PLL/pCMV-Luc solution was added to the cells. All the other conditions were the same as described above for the transfection assay.
as §2, with “To measure the luciferase activity, 20 μl aliquot of cell lysate was mixed with 50 μl of luciferase assay reagent at room temperature and inserted in the luminometer.” left out

Data set [4] relates to bovine aorta endothelial cells. Nature of the data set: Transfection inhibition assay with free AWBP. The settings on record: free AWBP 31.25 μM to 500 μM. In kind it is cell-based. How it is done:
as §3
as §2, with “To measure the luciferase activity, 20 μl aliquot of cell lysate was mixed with 50 μl of luciferase assay reagent at room temperature and inserted in the luminometer.” left out

Turning to “AWBP-PEG-g-PLL: artery wall binding peptide (SEQ ID NO:2) conjugated to poly(ethylene glycol)-grafted-poly(L-lysine), about 4 mol AWBP per mole (CGRALVDTLKFVTQAEGAK; also: conjugated to PEG-grafted poly(L-lysine), about 4 mol peptide per mole, site not given here; listed as Homo sapiens)”, the “luciferase activity of cell lysate” value is “significantly increased” in data set [1] (ratio carrier to plasmid DNA from 1.5:1 to 2:1, FIG. 6B); “remained constant” in data set [1] (ratio carrier to plasmid DNA from 2:1 to 5:1, FIG. 6B); “significantly increased” in data set [2] (ratio carrier to plasmid DNA from 1.5:1 to 2:1, FIG. 6A); “remained constant” in data set [2] (ratio carrier to plasmid DNA from 2:1 to 5:1, FIG. 6A). Moreover, in the data set on DNase I, the “time for which pDNA is protected from digestion with DNase” value is on record as “at least 2 hours”.

Take “AWBP: synthetic peptide based on arterial binding domain of apo B-100 (residues 1000-1016) with cysteine added to amino-terminus (CGRALVDTLKFVTQAEGAK; listed as Homo sapiens)”: the “effect of free AWBP on gene transfer by AWBP-PEG-g-PLL/pDNA complexes” value in data set [3] and in data set [4] was “significantly inhibit” in each case.
